Measurements reported in ChEMBL document CHEMBL1795300, “Fluorescent phosphoinositide 3-kinase inhibitors suitable for monitoring of intracellular distribution” (Bioorg Med Chem, 2011).

What was measured:
[1] = Inhibition of PI3K assessed as amount of ADP produced preincubated with compound and L-alpha-phosphatidylinositol for 5 mins by Glo Max luminescent kinase assay
MCF7 = assay: Antiproliferative activity against human MCF7 cells after 48 hrs by MTT assay; format: functional, cell-based; settings: MCF7, 48 h
SK-BR-3 = assay: Antiproliferative activity against human SKBR3 cells after 48 hrs by MTT assay; format: functional, cell-based; settings: SK-BR-3, 48 h
T47D = assay: Antiproliferative activity against human T47D cells after 48 hrs by MTT assay; format: functional, cell-based

Row | SMILES | IC50 [1] | IC50 (MCF7) | IC50 (SK-BR-3) | IC50 (T47D)
1 | COc1ccc(-n2c(-c3cnccc3NS(C)(=O)=O)nc3c2c(=O)n(C)c(=O)n3C)cc1 | > 30 µM | – | – | –
2 | CN(C)c1ccc(-c2nc3c(c(=O)n(C)c(=O)n3C)n2-c2cc(F)cc(F)c2)cc1 | 25 µM | – | – | –
3 | COc1ccc(-n2c(-c3ccc(N(C)C)cc3)nc3c2c(=O)n(C)c(=O)n3C)cc1F | 22 µM | – | – | –
4 | COc1cc(N(C)C)ccc1-c1nc2c(c(=O)n(C)c(=O)n2C)n1-c1cccc(F)c1 | 22 µM | – | – | –
5 | COc1ccc(-n2c(-c3ccc(NC(C)=O)c(OC)c3)nc3c2c(=O)n(C)c(=O)n3C)cc1F | 8.5 µM | – | – | –
6 | CN(C)c1ccc(-c2nc3c(c(=O)n(C)c(=O)n3C)n2-c2ccc(Cl)c(Cl)c2)cc1 | > 30 µM | – | – | –
7 | COc1ccc(-n2c(-c3ccc(NC(C)=O)cc3)nc3c2c(=O)n(C)c(=O)n3C)cc1OC | 0.51 µM | – | – | –
8 | CC(=O)Nc1ccc(-c2nc3c(c(=O)n(C)c(=O)n3C)n2-c2ccccc2)cc1 | 12.5 µM | – | – | –
9 | CC(=O)Nc1ccc(-c2nc3c(c(=O)n(C)c(=O)n3C)n2-c2ccc(C)cc2)cc1 | 0.37 µM | – | – | –
10 | COc1cc(NC(C)=O)ccc1-c1nc2c(c(=O)n(C)c(=O)n2C)n1-c1ccc(Cl)c(Cl)c1 | 13 µM | – | – | –
11 | COc1ccc(-n2c(-c3cccc(NS(C)(=O)=O)c3)nc3c2c(=O)n(C)c(=O)n3C)cc1 | 3.2 µM | – | – | –
12 | CN(C)c1ccc(-c2nc3c(c(=O)n(C)c(=O)n3C)n2-c2cccc(F)c2)cc1 | 20 µM | – | – | –
13 | COc1cc(N(C)C)ccc1-c1nc2c(c(=O)n(C)c(=O)n2C)n1-c1cc(F)cc(F)c1 | 15 µM | – | – | –
14 | COc1ccc(-n2c(-c3cncc(NS(C)(=O)=O)c3)nc3c2c(=O)n(C)c(=O)n3C)cc1 | 4.5 µM | – | – | –
15 | COc1ccc(-n2c(-c3ccc(N(C)C)cc3)nc3c2c(=O)n(C)c(=O)n3C)cc1 | 22 µM | – | – | –
16 | COc1ccc(-n2c(-c3ccc(N(C)C)cc3)nc3c2c(=O)n(C)c(=O)n3C)cc1OC | 25 µM | – | – | –

These reach a lower IC50 [1]. Values come first.

Row | IC50 [1] | IC50 (MCF7) | IC50 (SK-BR-3) | IC50 (T47D) | SMILES
17 | 0.017 µM | 11.6 µM | > 25 µM | 4.7 µM | CNC(=O)Nc1ccc(-c2nc3c(c(=O)n(C)c(=O)n3C)n2-c2ccc(OC)c(F)c2)cc1
18 | 0.031 µM | 2.8 µM | 11.5 µM | 1.6 µM | COc1ccc(-n2c(-c3ccc(NC(C)=O)cc3)nc3c2c(=O)n(C)c(=O)n3C)cc1F
19 | 0.15 µM | 9.4 µM | > 25 µM | 3.7 µM | COc1ccc(-n2c(-c3ccc(NC(C)=O)cc3)nc3c2c(=O)n(C)c(=O)n3C)cc1
20 | 0.21 µM | 4.2 µM | > 25 µM | 1.7 µM | COC(=O)Nc1ccc(-c2nc3c(c(=O)n(C)c(=O)n3C)n2-c2ccc(OC)cc2)cc1
21 | 0.28 µM | – | – | – | CC(=O)Nc1ccc(-c2nc3c(c(=O)n(C)c(=O)n3C)n2-c2ccc(Cl)c(Cl)c2)cc1
22 | 0.22 µM | – | – | – | COc1ccc(-n2c(-c3cncc(NS(=O)(=O)c4ccc(C)cc4)c3)nc3c2c(=O)n(C)c(=O)n3C)cc1
23 | 0.068 µM | 1.7 µM | 15.4 µM | 0.9 µM | CC(=O)Nc1ccc(-c2nc3c(c(=O)n(C)c(=O)n3C)n2-c2cccc(F)c2)cc1
24 | 0.091 µM | – | – | – | COc1ccc(-n2c(-c3cncc(NS(=O)(=O)c4ccccc4)c3)nc3c2c(=O)n(C)c(=O)n3C)cc1
